The values below are quoted from earlier work in patent publication US9040535B2, “Crystalline molecular comlpexes of tadalafil” (THAR PHARMACEUTICALS, INC., priority 2009, dated 2015).

For data set [1] the following is noted: n-octanol/buffer pH 7.4.

With `CN1CC(=O)N2[C@H](c3ccc4c(c3)OCO4)c3[nH]c4ccccc4c3C[C@@H]2C1=O` [Tadalafil, (6R-trans)-6-(1,3-benzodioxol-5-yl)-2,3,6,7,12,12a-hexahydro-2methyl-pyrazino[1′,2′:1,6]pyrido[3,4-b]indole-1,4-dione], the “apparent partition coefficient (log P)app” value in data set [1] is 1.7. For the same molecule, the solubility in chloroform entry (chloroform) was “sparingly soluble”. For the same molecule, the solubility in dioxane entry (dioxane) is “soluble”. The solubility in tetrahydrofuran result (tetrahydrofuran) is recorded as “sparingly soluble”. Moreover, the solubility in water result (water) is on record as “practically insoluble”.
